In patent publication US9193731B2, “Antimicrobial compounds and methods of making and using the same” (Melinta Therapeutics, Inc., priority 2009, dated 2015):

Test system: Escherichia coli strain ATCC25922
Assay: standard microdilution assay to determine minimum inhibitory concentrations (MICs)
Format: cell-based
Settings: Escherichia coli strain ATCC25922, microdilution
How it was run: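 E. coli strain ATCC25922 tested per CLSI microdilution methodology (about 100 microliters per well) to find minimum inhibitory concentrations. Activity scored categorically at a 16 micrograms/ml threshold.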

SMILES	E. coli ATCC25922 MIC
N=C(N)NCCCNCc1ccc(-n2cc3cc(-c4cc(OCC(F)CN)cc(N5CCNCC5)c4)[nH]c3nc2=O)cc1 (stereo not shown) [Compound 2005a]	+ (a “+” indicates that the compound has an MIC value of 16 micrograms/ml or less)
N=C(N)NCCCNCc1ccc(-n2cc3cc(C4CCCN(CCCN5CCOCC5)C4)[nH]c3nc2=O)cc1 (stereo not shown) [Compound 2044a]	+ (a “+” indicates that the compound has an MIC value of 16 micrograms/ml or less)
N=C(N)NCCCNCc1ccc(-n2cc3cc(-c4ccc(S(=O)(=O)N(CC5COc6ccccc6O5)C5CCNCC5)cc4)[nH]c3nc2=O)cc1 (stereo not shown) [Compound 768]	+ (a “+” indicates that the compound has an MIC value of 16 micrograms/ml or less)
CC(=O)NCCCS(=O)(=O)c1ccc(-c2cc3cn(-c4ccc(C(=O)NCCCNC(=N)N)cc4)c(=O)nc3[nH]2)cc1 [Compound 1274]	− (a “−” indicates that the compound has an MIC value greater than 16 micrograms/ml)
NC(N)=NCCCNCc1ccc(-n2cc3cc(-c4ccc(S(=O)(=O)NC5CCNCC5)cc4)oc3nc2=O)cc1 [Compound 1242]	+ (a “+” indicates that the compound has an MIC value of 16 micrograms/ml or less)
N=C(N)NCCCNCc1ccc(-n2cc3cc(-c4cc(C(=O)Nc5cc(F)cc(F)c5)cc(N5CCNCC5)c4)[nH]c3nc2=O)cc1 [Compound 978]	+ (a “+” indicates that the compound has an MIC value of 16 micrograms/ml or less)
N=C(N)NCCCNCc1ccc(-n2cc3cc(-c4ccc(S(=O)(=O)N(CCOc5ccc(F)cc5)C5CCOCC5)cc4)[nH]c3nc2=O)cc1 [Compound 880]	− (a “−” indicates that the compound has an MIC value greater than 16 micrograms/ml)
N=C(N)NCCCNCc1ccc(-n2cc3cc(-c4cc(C(=O)Nc5cccc(F)c5)cc(N5CCNCC5)c4)[nH]c3nc2=O)cc1 [Compound 982]	+ (a “+” indicates that the compound has an MIC value of 16 micrograms/ml or less)
N=C(N)NCCCNCc1ccc(-n2cc3cc(-c4cc(OC(F)(F)F)cc(S(=O)(=O)CCCN)c4)[nH]c3nc2=O)cc1 [Compound 2052a]	+ (a “+” indicates that the compound has an MIC value of 16 micrograms/ml or less)
N=C(N)NCCCNCc1ccc(-n2cc3cc(-c4cc(C(=O)NCCc5ccc(F)cc5)cc(N5CCNCC5)c4)[nH]c3nc2=O)cc1 [Compound 963]	+ (a “+” indicates that the compound has an MIC value of 16 micrograms/ml or less)
N=C(N)NCCCNCc1ccc(-n2cc3cc(CCNC4CNC4)[nH]c3nc2=O)cc1 [Compound 1398]	+ (a “+” indicates that the compound has an MIC value of 16 micrograms/ml or less)
CCNCCc1cc(OCC(F)CN)cc(-c2cc3cn(-c4ccc(CNCCCNC(=N)N)cc4)c(=O)nc3[nH]2)c1 (stereo not shown) [Compound 2033a]	+ (a “+” indicates that the compound has an MIC value of 16 micrograms/ml or less)
N=C(N)NCCCNCc1ccc(-n2cc3cc(-c4cccc(S(=O)(=O)N(CCc5ccc(F)cc5)C5CCNCC5)c4)[nH]c3nc2=O)cc1 [Compound 1172]	+ (a “+” indicates that the compound has an MIC value of 16 micrograms/ml or less)
N=C(N)NCCCN1CC=C(n2cc3cc(-c4ccc(S(=O)(=O)N(CCCC5CCCC5)C5CCNCC5)cc4)[nH]c3nc2=O)CC1 [Compound 967]	+ (a “+” indicates that the compound has an MIC value of 16 micrograms/ml or less)
N=C(N)N1CCC(NCCCS(=O)(=O)c2ccc(-c3cc4cn(-c5ccc(CNCCCN)cc5)c(=O)nc4[nH]3)cc2)C1 (stereo not shown) [Compound 1292]	+ (a “+” indicates that the compound has an MIC value of 16 micrograms/ml or less)
N=C(N)NCCCNCc1ccc(-n2cc3cc(-c4cc(C(=O)NC5CCNCC5)cc(N5CCNCC5)c4)[nH]c3nc2=O)cc1 [Compound 1023]	+ (a “+” indicates that the compound has an MIC value of 16 micrograms/ml or less)

SMILES	E. coli ATCC25922 MIC
N=C(N)NCCCNCc1ccc(-n2cc3cc(-c4ccc(S(=O)(=O)N(Cc5cc(OC(F)(F)F)ccc5F)C5CCNCC5)cc4)[nH]c3nc2=O)cc1 [Compound 767]	+ (a “+” indicates that the compound has an MIC value of 16 micrograms/ml or less)
N=C(N)NCCCNCc1ccc(-n2cc3cc(-c4cccc(OCC5CNC5)c4)[nH]c3nc2=O)cc1 [Compound 1418]	+ (a “+” indicates that the compound has an MIC value of 16 micrograms/ml or less)
N=C(N)NCCCNCc1ccc(-n2cc3cc(-c4ccc(S(=O)(=O)N(CC5CC5c5ccncc5)C5CCNCC5)cc4)[nH]c3nc2=O)cc1 (stereo not shown) [Compound 866]	+ (a “+” indicates that the compound has an MIC value of 16 micrograms/ml or less)
N=C(N)NCCCNCc1ccc(-n2cc3cc(-c4cc(CCCCN)cc(C(F)F)c4)[nH]c3nc2=O)cc1 [Compound 2087a]	+ (a “+” indicates that the compound has an MIC value of 16 micrograms/ml or less)
N=C(N)NCCCNCc1ccc(-n2cc3cc(C4CCN(CCCCN)C4)[nH]c3nc2=O)cc1 (stereo not shown) [Compound 1437]	+ (a “+” indicates that the compound has an MIC value of 16 micrograms/ml or less)
CS(=O)(=O)NCc1cc(OCC(F)CN)cc(-c2cc3cn(-c4ccc(CNCCCNC(=N)N)cc4)c(=O)nc3[nH]2)c1 (stereo not shown) [Compound 2037a]	− (a “−” indicates that the compound has an MIC value greater than 16 micrograms/ml)
CN(Cc1cccc(F)c1)Cc1cc(-c2cc3cn(-c4ccc(CNCCCNC(=N)N)cc4)c(=O)nc3[nH]2)cc(N2CCNCC2)c1 [Compound 1049]	+ (a “+” indicates that the compound has an MIC value of 16 micrograms/ml or less)
CN1CCN(CCCN(C2CCNCC2)S(=O)(=O)c2ccc(-c3cc4cn(-c5ccc(CN6CC[C@@H](NC(=N)N)C6)cc5)c(=O)nc4[nH]3)cc2)CC1 [Compound 1207]	− (a “−” indicates that the compound has an MIC value greater than 16 micrograms/ml)
NCCCNCc1ccc(-c2cn3cc(-c4ccc(C(=O)N5CCN(CCF)CC5)cc4)[nH]c3nc2=O)cc1 [Compound 825]	− (a “−” indicates that the compound has an MIC value greater than 16 micrograms/ml)
CCOC(CN)COc1cccc(-c2cc3cn(-c4ccc(CNCCCNC(=N)N)cc4)c(=O)nc3[nH]2)c1 (stereo not shown) [Compound 1458]	+ (a “+” indicates that the compound has an MIC value of 16 micrograms/ml or less)
CC1CN(C(=O)c2ccc(-c3cn4cc(-c5ccc(CNCCCN)cc5)c(=O)nc4[nH]3)cc2)CC(C)N1 (stereo not shown) [Compound 819]	+ (a “+” indicates that the compound has an MIC value of 16 micrograms/ml or less)
N=C(N)NCCCNCc1ccc(-n2cc3cc(C4CCCN(CC(O)CN)C4)[nH]c3nc2=O)cc1 (stereo not shown) [Compound 1422]	+ (a “+” indicates that the compound has an MIC value of 16 micrograms/ml or less)
NC(N)=NCCCNCc1ccc(-n2cc3cc(-c4cccc(S(=O)(=O)N(CCc5ccc(O)cc5)C5CCNCC5)c4)[nH]c3nc2=O)cc1 [Compound 1214]	+ (a “+” indicates that the compound has an MIC value of 16 micrograms/ml or less)
COC(CN)COc1cccc(-c2cc3cn(-c4ccc(CNCCCNC(=N)N)cc4)c(=O)nc3[nH]2)c1 (stereo not shown) [Compound 1453]	+ (a “+” indicates that the compound has an MIC value of 16 micrograms/ml or less)
N=C(N)NCCCNCc1ccc(-n2cc3cc(-c4ccc(S(=O)(=O)N(Cc5ccc6nonc6c5)C5CCNCC5)cc4)[nH]c3nc2=O)cc1 [Compound 769]	+ (a “+” indicates that the compound has an MIC value of 16 micrograms/ml or less)
N=C(N)NCCCNCc1ccc(-n2cc3cc(-c4ccc(C[C@H](N)CO)cc4)[nH]c3nc2=O)cc1 [Compound 907]	+ (a “+” indicates that the compound has an MIC value of 16 micrograms/ml or less)

Same assay, conditions: Escherichia coli, ATCC25922, Escherichia coli strain ATCC25922, microdilution; read-out: E. coli ATCC25922 MIC

MIC [µg/mL]	SMILES
> 16	CNCCOc1ccccc1-c1cc2cn(-c3ccc(CN)cc3)c(=O)nc2[nH]1 [Compound 1129]
< 16	NCCCCCN1CC=C(n2cc3cc(-c4ccc(C(=O)NC5CCNCC5)cc4)[nH]c3nc2=O)CC1 [Compound 507]
< 16	N=C(N)NCCCNCc1ccc(-n2cc3cc(-c4cc(CCCCN)cc(OC(F)(F)F)c4)[nH]c3nc2=O)cc1 [Compound 2009a]
> 16	CN(Cc1ccccc1)Cc1cc2cn(-c3ccc(CNCCCN)cc3)c(=O)nc2[nH]1 [Compound 905]
> 16	N#CCCCOc1cccc(-c2cc3cn(-c4ccc(CN)cc4)c(=O)nc3[nH]2)c1 [Compound 1151]
> 16	NCCCCCN1CCN(c2cn3cc(-c4ccc(Br)cc4)[nH]c3nc2=O)CC1 [Compound 883]
> 16	N=C(N)NCCCNCc1ccc(-c2cn3cc(CCc4cc(F)c(F)cc4F)[nH]c3nc2=O)cc1 [Compound 952]
> 16	COc1ccc(CCN(C2CCNCC2)S(=O)(=O)c2cccc(-c3cc4cn(-c5ccc(CN)cc5)c(=O)nc4[nH]3)c2)cc1 [Compound 1215]
> 16	CCOCCn1cc(CCNO)c2ccc(-n3cc4cc(CCS(=O)(=O)NC5CCNCC5)[nH]c4nc3=O)cc21 [Compound 1209]
> 16	NC(=O)c1ccc(-n2cc3cc(-c4ccc(S(=O)(=O)N(CCOc5ccc(F)cc5)C5CCNCC5)cc4)[nH]c3nc2=O)cc1 [Compound 1080]
> 16	CN1CCN(C(=O)c2ccc(-c3cn4cc(-c5ccc(CNCCCN)cc5)c(=O)nc4[nH]3)cc2)CC1 [Compound 699]
< 16	N=C(N)NCCCNCc1ccc(-n2cc3cc(-c4ccc(S(=O)(=O)N(C5CCNCC5)C5CCOCC5)cc4)[nH]c3nc2=O)cc1 [Compound 727]
> 16	NCCCc1cccc(-c2cc3cn(-c4ccc(C(N)C(F)(F)F)cc4)c(=O)nc3[nH]2)c1 (stereo not shown) [Compound 2080a]
> 16	NCCCN(CCCN)Cc1ccc(-n2cc3cc(-c4ccc(C(=O)O)cc4)[nH]c3nc2=O)cc1 [Compound 218]
> 16	NCCCNCc1ccc(-c2cn3cc(-c4ccc(C(=O)NCCO)cc4)[nH]c3nc2=O)cc1 [Compound 827]
< 16	N=C(N)NCCCNCc1ccc(-n2cc3cc(-c4ccc(S(=O)(=O)N(Cc5ccc(Cl)c(Cl)c5)C5CCNCC5)cc4)[nH]c3nc2=O)cc1 [Compound 725]
> 16	NCCc1cn(CCCCO)c2cc(-n3cc4cc(CCS(=O)(=O)C5CCNCC5)[nH]c4nc3=O)ccc12 [Compound 1239]
